# Results reported in patent publication US8697728B2, “Perhexiline for use in the treatment of hypertrophic cardiomyopathy (HCM)” (The University of Birmingham, priority 2009, dated 2014).
# What was measured:
# symptomatic HCM patients [1] = assay: Cardiopulmonary exercise test (peak oxygen consumption), randomized double-blind placebo-controlled study; type: in vivo, human; conditions: p=0.003 vs placebo
# Excerpt: (§1) The study was approved by the South Birmingham Research Ethics Committee and the investigation conforms with the principles outlined in the Declaration of Helsinki. All study participants provided written informed consent. The study was a randomized, double blind, placebo-controlled parallel-group design of minimum 3 months duration. FIG. 1 represents a flow chart of the study. The pre-defined primary end point was peak oxygen consumption (peak VO2). Pre-defined secondary end points were symptomatic status, resting myocardial energetics (PCr/γ-ATP ratio) and diastolic function at rest and during exercise (nTTPF). 33 controls of similar age and gender distribution were recruited for comparison with baseline data of HCM patients. […]
# Following baseline studies, patients were randomized in a double-blind fashion to receive either perhexiline (n=25) or placebo (n=21) 100 mg OD. […] At the end of study, patients were re-evaluated as described earlier.
# Data were analyzed using SPSS ver. 15.0 for Window and Microsoft Office Excel 2007, and expressed as Mean±Standard Deviation (SD). Comparison of continuous variables between Perhexiline and Placebo baseline data were determined by unpaired Student's t-test (2-tail) if variables were normally distributed and the Mann-Whitney U-test if the data were non-normally distributed. […]
# symptomatic HCM patients [2] = assay: Radionuclide ventriculography (diastolic ventricular filling, nTTPF); type: in vivo, human; conditions: perhexiline group, p=0.03 vs placebo response
# Excerpt: as §1, with “(nTTPF).” for “(nTTPF). 33 controls of similar age and gender distribution were recruited for comparison with baseline data of HCM patients.”
# Diastolic filling were assessed by equilibrium R-wave gated blood pool scintigraphy using a standard technique at rest and during graded semi erect exercise on a cycle ergometer (Atherton J J, Moore T D, Lele S S et al. Diastolic ventricular interaction in chronic heart failure. Lancet 1997;349 (9067):1720-1724; Lele S S, Macfarlane D, Morrison S, Thomson H, Khafagi F, Frenneaux M. Determinants of exercise capacity in patients with coronary artery disease and mild to moderate systolic dysfunction. Role of heart rate and diastolic filling abnormalities. Eur Heart J 1996;17(2):204-212). […]
# Data were analyzed using SPSS ver. 15.0 for Window and Microsoft Office Excel 2007, and expressed as Mean±Standard Deviation (SD). […]
# symptomatic HCM patients [3] = assay: Side effects and deaths during the study; type: in vivo; conditions: perhexiline group (n=25), during the first week of treatment
# Excerpt: The study was a randomized, double blind, placebo-controlled parallel-group design of minimum 3 months duration. […] The pre-defined primary end point was peak oxygen consumption (peak VO2). Pre-defined secondary end points were symptomatic status, resting myocardial energetics (PCr/γ-ATP ratio) and diastolic function at rest and during exercise (nTTPF).
# Diabetic patients were also excluded to maintain the blindness of the study as Perhexiline may lead to a reduction in plasma glucose in such patients necessitating a reduction in anti-diabetic therapy. 46 consecutive consenting patients who met these entry criteria were recruited into the study.
# Following baseline studies, patients were randomized in a double-blind fashion to receive either perhexiline (n=25) or placebo (n=21) 100 mg OD. Serum perhexiline levels were obtained at 1 and 4 weeks after initiation of the drug. Dose adjustments were advised by an unblinded physician according to serum level to achieve therapeutic level and to avoid drug toxicity. Identical dosage adjustments were also made for randomly allocated placebo-treated patients by the unblinded observer to ensure that blinding of the investigators was maintained. At the end of study, patients were re-evaluated as described earlier.
compound,measurement,setting,value
"C1CCC(C(CC2CCCCN2)C2CCCCC2)CC1 (centres unmarked) [perhexiline, 2-(2,2-dicyclohexylethyl) piperidine]","Effect on peak oxygen consumption (peak VO2, exercise capacity), in words",symptomatic HCM patients [1]; FIG. 3A legend,increases
same,Change in Peak VO2 after treatment (increase),"symptomatic HCM patients [1]; HCM patients, perhexiline group, after treatment vs baseline",2.09 mL/min/kg
same,εnTTPF (change of nTTPF from rest to exercise) on therapy,symptomatic HCM patients [2],0.00 ± 0.003 s
same,Side effect: dizziness (number of patients),symptomatic HCM patients [3],2
same,Side effect: transient nausea (number of patients),symptomatic HCM patients [3],3
